Results from ChEMBL document CHEMBL6121063, “Identification of a Potent and Selective CDK9 Degrader as a Targeted Therapeutic Option for the Treatment of Small-Cell Lung Cancer” (J Med Chem, 2025).

Legend:
[1] = biological target: Cyclin-dependent kinase 3 (Homo sapiens, UniProt Q00526); experiment: Inhibition of CDK3 (unknown origin)
[2] = biological target: Cyclin-dependent kinase 1 (Homo sapiens, UniProt P06493)
[3] = biological target: Cyclin-dependent kinase 2 (Homo sapiens, UniProt P24941); experiment: Inhibition of CDK2 (unknown origin)
[4] = biological target: Cyclin-dependent kinase 4 (Homo sapiens, UniProt P11802); experiment: Inhibition of CDK4 (unknown origin)
[5] = biological target: Cyclin-dependent kinase 5 (Homo sapiens, UniProt Q00535)
Chain of Cyclin-dependent kinase 5 (Q00535 whole entry): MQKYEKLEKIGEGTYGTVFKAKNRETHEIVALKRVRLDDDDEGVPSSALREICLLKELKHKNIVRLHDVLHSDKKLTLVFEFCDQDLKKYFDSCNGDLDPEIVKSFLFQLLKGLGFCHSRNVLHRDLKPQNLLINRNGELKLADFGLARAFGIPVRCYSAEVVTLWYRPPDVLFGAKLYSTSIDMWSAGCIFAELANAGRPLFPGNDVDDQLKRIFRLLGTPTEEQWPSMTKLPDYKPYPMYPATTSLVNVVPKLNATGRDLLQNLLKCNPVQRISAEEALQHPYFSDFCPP

Chain of Cyclin-dependent kinase 1 (P06493 whole entry): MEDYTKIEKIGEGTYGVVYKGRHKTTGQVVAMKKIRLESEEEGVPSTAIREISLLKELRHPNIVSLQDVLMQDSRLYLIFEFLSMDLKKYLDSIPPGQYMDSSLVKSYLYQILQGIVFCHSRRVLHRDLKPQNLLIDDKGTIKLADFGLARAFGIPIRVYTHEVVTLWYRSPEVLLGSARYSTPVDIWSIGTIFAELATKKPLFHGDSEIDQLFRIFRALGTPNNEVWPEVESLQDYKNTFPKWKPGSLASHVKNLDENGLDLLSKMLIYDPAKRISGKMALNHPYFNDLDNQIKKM
Chain of Cyclin-dependent kinase 4 (P11802 whole entry): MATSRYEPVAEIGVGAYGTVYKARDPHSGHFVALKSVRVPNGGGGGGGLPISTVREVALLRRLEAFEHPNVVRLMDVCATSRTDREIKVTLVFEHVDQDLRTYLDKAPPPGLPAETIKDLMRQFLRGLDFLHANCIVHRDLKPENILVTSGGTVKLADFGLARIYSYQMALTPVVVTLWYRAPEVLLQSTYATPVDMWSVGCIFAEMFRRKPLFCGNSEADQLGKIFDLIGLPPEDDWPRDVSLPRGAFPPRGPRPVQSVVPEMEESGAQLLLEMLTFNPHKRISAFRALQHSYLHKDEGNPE
Chain of Cyclin-dependent kinase 3 (Q00526 whole entry): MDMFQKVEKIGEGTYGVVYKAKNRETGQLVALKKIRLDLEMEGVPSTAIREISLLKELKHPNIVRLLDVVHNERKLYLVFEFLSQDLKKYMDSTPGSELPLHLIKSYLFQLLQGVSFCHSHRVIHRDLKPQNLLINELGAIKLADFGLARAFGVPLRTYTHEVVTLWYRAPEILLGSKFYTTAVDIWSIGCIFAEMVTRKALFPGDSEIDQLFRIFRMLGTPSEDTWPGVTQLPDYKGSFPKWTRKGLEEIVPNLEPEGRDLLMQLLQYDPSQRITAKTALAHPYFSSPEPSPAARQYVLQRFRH

IC50 [1]: < 5 nM | IC50 [2]: < 5 nM | IC50 [3]: < 5 nM | IC50 [4]: < 5 nM | IC50 [5]: < 5 nM
SMILES: COCCN1CCN(Cc2ccc(-c3n[nH]c4c3C(=O)c3c(NC(=O)NN5CCOCC5)cccc3-4)cc2)CC1 [RGB-286638]
